One block for each compound: values may come before it.
Experiments:
[1] = Mutagenic potential
[2] = system: normal healthy volunteers; test: KAR-001 Phase I study: safety and tolerability, cholinergic adverse events; type: in vivo, human
[3] = KAR-001 Phase I study: xanomeline pharmacokinetics; conditions: human, in vivo, 225 mg daily; for AUC / Cmax: oral, geometric mean; for AUC: Xanomeline AUC0-tau; for Cmax: Xanomeline Cmax
Method: A Phase I, double-blind, randomized multiple-dose pilot study was conducted with xanomeline administered alone compared to xanomeline administered with trospium chloride in normal healthy volunteers. […]

[4] = 26-week study of Alzheimer's disease; cited from earlier work
[5] = KAR-001 Safety Population, cholinergic TEAE, number of individual occurrences
[6] = KAR-001 Safety Population, cholinergic TEAE, number of subjects
[7] = KAR-001 Safety Population, cholinergic TEAE, percentage of subjects in arm

Structure (SMILES): CCCCCCOc1nsnc1-c1ccc[n+](C)c1 [Compound V]
mutagenic potential [1]: negative

Tmax ([3]; KAR-001 Day 3, median): 2 h
AUC ([3]; KAR-001 Day 3): 12.6 ng·h/mL
AUC ([3]; KAR-001 Day 9): 24.8 ng·h/mL
Cmax ([3]; KAR-001 Day 3): 2.95 ng/mL
Cmax ([3]; KAR-001 Day 9): 4.57 ng/mL
Structure (SMILES): CCCCCCOc1nsnc1C1=CCCN(C)C1 [xanomeline]
AE leading to discontinuation (D/C), # events ([2]; KAR-001): 2
AE leading to discontinuation (D/C), % ([2]; KAR-001): 6.1%
Any SAE, % ([2]; KAR-001): (0.0) %
Any clinically significant TEAE, # events ([2]; KAR-001): 5
Any clinically significant TEAE, % ([2]; KAR-001): 15.2%
Any study drug-related TEAE, # events ([2]; KAR-001): 92
Any study drug-related TEAE, % ([2]; KAR-001): 69.7%
Diarrhea, # of events ([2]; KAR-001): 8
Diarrhea, % of subjects ([2]; KAR-001): 21.2%
Diarrhea, n subjects ([2]; KAR-001): 7
Max Severity of TEAE: Mild, % ([2]; KAR-001): (66.7) N/A %
Max Severity of TEAE: Moderate, % ([2]; KAR-001): (15.2) N/A %
Max Severity of TEAE: Severe, % ([2]; KAR-001): (0.0) %
Max severity of study drug-related TEAE: Mild, % ([2]; KAR-001): (57/6) N/A
Max severity of study drug-related TEAE: Moderate, % ([2]; KAR-001): (12.1) N/A %
Max severity of study drug-related TEAE: Severe, % ([2]; KAR-001): (0.0) N/A %
Nausea, # of events ([2]; KAR-001): 11
Nausea, % of subjects ([2]; KAR-001): 24.2%
Nausea, n subjects ([2]; KAR-001): 8
Salivation (salivary hypersecretion), % of subjects ([2]; KAR-001): 36.4%
Salivation, # of events ([2]; KAR-001): 16
Salivation, n subjects ([2]; KAR-001): 12
Study drug related AE leading to D/C, # events ([2]; KAR-001): 1
Study drug related AE leading to D/C, % ([2]; KAR-001): 3.0%
Subjects with any TEAE, # events ([2]; KAR-001): 108
Subjects with any TEAE, % ([2]; KAR-001): 81.8%
Sweating (hyperhidrosis), % of subjects ([2]; KAR-001): 48.5%
Sweating, # of events ([2]; KAR-001): 24
Sweating, n subjects ([2]; KAR-001): 16
Vomiting, # of events ([2]; KAR-001): 5
Vomiting, % of subjects ([2]; KAR-001): 15.2%
Vomiting, n subjects ([2]; KAR-001): 5
Cholinergic adverse events: Any TEAEs, # of events ([2]; KAR-001, healthy volunteers): 64
Cholinergic adverse events: Any TEAEs, n subjects ([2]; KAR-001, healthy volunteers): 21
Cholinergic adverse events: Any TEAEs, % of subjects ([2]; KAR-001, healthy volunteers, listed as Xanomeline + placebo): 63.6%
Cholinergic adverse events: Any TEAEs, % of subjects ([2]; KAR-001, healthy volunteers, listed as xanomeline+placebo): 63%
Diarrhea, # occurrences [2, 5]: 8
Gastrointestinal disorders, # occurrences [2, 5]: 40
Hyperhidrosis, # occurrences [2, 5]: 24
Nausea, # occurrences [2, 5]: 11
Salivary hypersecretion, # occurrences [2, 5]: 16
Skin and subcutaneous tissue disorders, # occurrences [2, 5]: 24
Vomiting, # occurrences [2, 5]: 5
Diarrhea, n subjects [2, 6]: 7
Gastrointestinal disorders, n subjects [2, 6]: 18
Hyperhidrosis, n subjects [2, 6]: 16
Nausea, n subjects [2, 6]: 8
Salivary hypersecretion, n subjects [2, 6]: 12
Skin and subcutaneous tissue disorders, n subjects [2, 6]: 16
Vomiting, n subjects [2, 6]: 5
Diarrhea, % of subjects [2, 7]: 20.6%
Gastrointestinal disorders, % of subjects [2, 7]: 52.9%
Hyperhidrosis, % of subjects [2, 7]: 47.1%
Nausea, % of subjects [2, 7]: 23.5%
Salivary hypersecretion, % of subjects [2, 7]: 35.3%
Skin and subcutaneous tissue disorders, % of subjects [2, 7]: 47.1%
Vomiting, % of subjects [2, 7]: 14.7%
Subjects with any TEAEs (cholinergic), # occurrences ([2]; KAR-001 Safety Population, number of individual occurrences): 64
Subjects with any TEAEs (cholinergic), n subjects ([2]; KAR-001 Safety Population, number of subjects): 21
Subjects with any TEAEs (cholinergic), % of subjects ([2]; KAR-001 Safety Population, percentage of subjects in arm): 61.8%
dropout rate [4]: 56%
